Earlier results on one compound are cited in patent US20220175791A1, “Methods for Predicting Neisseria Spp. Susceptibility to Cefixime” (priority 2019, published 2022).

`C=CC1=C(C(=O)O)N2C(=O)[C@@H](NC(=O)/C(=N\OCC(=O)O)c3csc(N)n3)[C@H]2SC1` [cefixime, Cefixime]: under “even in penicillin allergic patients”, the tolerability result is “very well tolerated”. Besides, the bioavailability entry (human, in vivo, po) is recorded as “high”.
